Assay results from publication PMC10459042, “Synthesis of 1,2,3-Triazole-Containing Methoxylated Cinnamides and Their Antileishmanial Activity against the Leishmania braziliensis Species” (Pharmaceuticals, 2023).

Key:
[1] = test system: Leishmania braziliensis stationary promastigotes; experiment: In vitro antileishmanial activity against promastigotes (MTT); assay type: cell-based; settings: Leishmania braziliensis; 48 h at 24 °C, MTT, mean ± standard deviation
Experimental: The study was approved by the Committee for the Ethical Handling of Research Animals from the Federal University of Minas Gerais (protocol number 085/2017). Leishmania braziliensis (MHOM/BR/1975/M2904) promastigotes were grown at 24 °C in Schneider’s medium (Sigma-Aldrich, USA) supplemented with 20% heat-inactivated fetal bovine serum (FBS, Sigma-Aldrich, USA) and 20 mmol/L L-glutamine at pH 7.4 [65].
(§1) The in vitro antileishmanial activity was evaluated by incubating the promastigotes or axenic amastigotes (1 × 10^6 cells/well) with the 24 synthetic derivatives (Compounds 5–28; 0 to 600 µg/mL) in 96-well culture plates (Nunc, Nunclon, Roskilde, Denmark) for 48 h at 24 °C. Due to the difficulty in obtaining a high concentration of murine macrophages, the cytotoxicity experiment was evaluated by incubating such cells (5 × 10^5 per mL) with Compound 28 (0 to 600 µg/mL), which presented the best antileishmanial activity, for 48 h at 37 °C in a 5% CO2 environment. AmpB (0 to 10 µg/mL; Sigma-Aldrich, St. Louis, MO, USA) was used as a positive control in both experiments. The cell viability was assessed using the 3-(4.5-dimethylthiazol-2-yl)-2.5-diphenyl tetrazolium bromide (MTT, Sigma-Aldrich, St. Louis, MO, USA) method. The optical density (OD) values were read using a microplate spectrophotometer (Molecular Devices, Spectra Max Plus, San Jose, CA, USA) at 570 nm. Results were entered into Microsoft Excel (version 10.0) spreadsheets, and the 50% Leishmania and macrophage inhibitory concentrations (IC50 and CC50, respectively) were calculated by applying a sigmoidal regression of the dose–response curve. The SI was calculated by dividing the CC50 with the respective IC50 values.

[2] = test system: Leishmania braziliensis axenic amastigotes; experiment: In vitro antileishmanial activity against axenic amastigotes (MTT); assay type: cell-based; settings: Leishmania braziliensis, 48 h, 48 h at 24 °C, MTT, mean ± standard deviation
Experimental: To obtain the axenic amastigotes, 1 × 10^9 stationary promastigotes were washed three times in sterile phosphate-buffered saline (PBS) and incubated in 5 mL FBS for 48 h at 37 °C. Parasites were washed with cold PBS, and their morphology was evaluated with an optical microscope after Giemsa staining as previously described.
as §1

| melting point [°C] | IC50 [1] [µg/mL] | IC50 [2] [µg/mL] | Compound |
| --- | --- | --- | --- |
| 178.6 to 180 | > 600 | > 600 | COc1ccc(/C=C/C(=O)NCc2cn(Cc3ccc(F)cc3)nn2)cc1 [Compound 7, N-((1-(4-fluorobenzyl)-1H-1,2,3-triazol-4-yl)methyl) (4-methoxy) cinnamide] |
| 200.6 to 202 | > 600 | > 600 | COc1ccc(/C=C/C(=O)NCc2cn(Cc3ccc(I)cc3)nn2)cc1 [Compound 10, N-((1-(4-iodobenzyl)-1H-1,2,3-triazol-4-yl)methyl) (4-methoxy) cinnamide] |
| 169 to 170.2 | > 600 | > 600 | COc1ccc(/C=C/C(=O)NCc2cn(Cc3ccc(OC)cc3)nn2)cc1 [Compound 12, N-((1-(4-methoxybenzyl)-1H-1,2,3-triazol-4-yl)methyl) (4-methoxy) cinnamide] |
| 193.1 to 194.7 | > 600 | > 600 | COc1ccc(/C=C/C(=O)NCc2cn(Cc3ccc(Br)cc3)nn2)cc1 [Compound 9, N-((1-(4-bromobenzyl)-1H-1,2,3-triazol-4-yl)methyl) (4-methoxy) cinnamide] |
| 185.7 to 186.5 | > 600 | > 600 | COc1ccc(/C=C/C(=O)NCc2cn(Cc3ccc(Cl)cc3)nn2)cc1 [Compound 8, N-((1-(4-chlorobenzyl)-1H-1,2,3-triazol-4-yl)methyl) (4-methoxy) cinnamide] |
| 166 to 167.2 | > 600 | > 600 | COc1ccc(/C=C/C(=O)NCc2cn(Cc3ccc(C)cc3)nn2)cc1 [Compound 5, N-((1-(4-methylbenzyl)-1H-1,2,3-triazol-4-yl)methyl) (4-methoxy) Cinnamide] |
| 187.4 to 188.3 | > 600 | > 600 | COc1ccc(/C=C/C(=O)NCc2cn(Cc3ccc(C(C)C)cc3)nn2)cc1 [Compound 6, N-((1-(4-isopropylbenzyl)-1H-1,2,3-triazol-4-yl)methyl) (4-methoxy) cinnamide] |
| 220.5 to 221.9 | > 600 | > 600 | COc1ccc(/C=C/C(=O)NCc2cn(Cc3ccc(C(F)(F)F)cc3)nn2)cc1 [Compound 14, N-((1-(4-(trifluoromethyl)benzyl)-1H-1,2,3-triazol-4-yl)methyl) (4-methoxy) cinnamide] |

The next lines start with the compound.

| Compound | melting point [°C] | IC50 [1] [µg/mL] | IC50 [2] [µg/mL] |
| --- | --- | --- | --- |
| COc1ccc(/C=C/C(=O)NCc2cn(Cc3ccc(Br)cc3)nn2)cc1OC [Compound 20, N-((1-(4-bromobenzyl)-1H-1,2,3-triazol-4-yl)methyl) (3,4-dimethoxy) cinnamide] | 198.2 to 199.6 | > 600 | > 600 |
| COc1ccc(/C=C/C(=O)NCc2cn(Cc3ccc([N+](=O)[O-])cc3)nn2)cc1OC [Compound 22, N-((1-(4-nitrobenzyl)-1H-1,2,3-triazol-4-yl)methyl) (3,4-dimethoxy) cinnamide] | 217.6 to 218.9 | > 600 | > 600 |
| COc1ccc(/C=C/C(=O)NCc2cn(Cc3ccc(C(C)C)cc3)nn2)cc1OC [Compound 17, N-((1-(4-isopropylbenzyl)-1H-1,2,3-triazol-4-yl)methyl) (3,4-dimethoxy) cinnamide] | 175.5 to 176.4 | > 600 | > 600 |
| COc1ccc(/C=C/C(=O)NCc2cn(Cc3ccc(C)cc3)nn2)cc1OC [Compound 16, N-((1-(4-methylbenzyl)-1H-1,2,3-triazol-4-yl)methyl) (3,4-dimethoxy) cinnamide] | 191.6 to 192.2 | > 600 | > 600 |
| COc1ccc(/C=C/C(=O)NCc2cn(Cc3ccc([N+](=O)[O-])cc3)nn2)cc1 [Compound 11, N-((1-(4-nitrobenzyl)-1H-1,2,3-triazol-4-yl)methyl) (4-methoxy) cinnamide] | 192.2 to 193.4 | > 600 | > 600 |
| COc1ccc(/C=C/C(=O)NCc2cn(Cc3ccc(OC(F)(F)F)cc3)nn2)cc1 [Compound 13, N-((1-(4-(trifluoromethoxy)benzyl)-1H-1,2,3-triazol-4-yl)methyl) (4-methoxy) cinnamide] | 191.4 to 193 | > 600 | > 600 |
| COc1ccc(/C=C/C(=O)NCc2cn(Cc3ccc(F)c(F)c3)nn2)cc1 [Compound 15, N-((1-(3,4-difluorobenzyl)-1H-1,2,3-triazol-4-yl)methyl) (4-methoxy) cinnamide] | 166.3 to 167.7 | > 600 | > 600 |
| COc1ccc(/C=C/C(=O)NCc2cn(Cc3ccc(I)cc3)nn2)cc1OC [Compound 21, N-((1-(4-iodobenzyl)-1H-1,2,3-triazol-4-yl)methyl) (3,4-dimethoxy) cinnamide] | 194 to 194.9 | > 600 | > 600 |
| COc1ccc(/C=C/C(=O)NCc2cn(Cc3ccc(Cl)cc3)nn2)cc1OC [Compound 19, N-((1-(4-chlorobenzyl)-1H-1,2,3-triazol-4-yl)methyl) (3,4-dimethoxy) cinnamide] | 189.6 to 190.8 | > 600 | > 600 |
| COc1ccc(/C=C/C(=O)NCc2cn(Cc3ccc(F)c(F)c3)nn2)cc1OC [Compound 26, N-((1-(3,4-difluorobenzyl)-1H-1,2,3-triazol-4-yl)methyl) (3,4-dimethoxy) cinnamide] | 166 to 167.2 | > 600 | > 600 |
| COc1ccc(/C=C/C(=O)NCc2cn(Cc3ccc(OC(F)(F)F)cc3)nn2)cc1OC [Compound 24, N-((1-(4-(trifluoromethoxy)benzyl)-1H-1,2,3-triazol-4-yl)methyl) (3,4-dimethoxy) cinnamide] | 177.4 to 178.6 | > 600 | > 600 |
| COc1ccc(/C=C/C(=O)NCc2cn(Cc3ccc(C(F)(F)F)cc3)nn2)cc1OC [Compound 25, N-((1-(4-(trifluoromethyl)benzyl)-1H-1,2,3-triazol-4-yl)methyl) (3,4-dimethoxy) cinnamide] | 196.4 to 197.6 | > 600 | > 600 |
| COc1ccc(/C=C/C(=O)NCc2cn(Cc3ccc(F)cc3)nn2)cc1OC [Compound 18, N-((1-(4-fluorobenzyl)-1H-1,2,3-triazol-4-yl)methyl) (3,4-dimethoxy) cinnamide] | 174.8 to 175.5 | > 600 | > 600 |
| COc1ccc(Cn2cc(CNC(=O)/C=C/c3ccc(OC)c(OC)c3)nn2)cc1 [Compound 23, N-((1-(4-methoxybenzyl)-1H-1,2,3-triazol-4-yl)methyl) (3,4-dimethoxy) cinnamide] | 171.2 to 172 | > 600 | > 600 |
| CCN(CC)c1ccc2cc(-n3cc(CNC(=O)/C=C/c4ccc(OC)cc4)nn3)c(=O)oc2c1 [Compound 27, N-((1-(7-(diethylamino)-2-oxo-2H-chromen-3-yl)-1H-1,2,3-triazol-4-yl)methyl) (4-methoxy) cinnamide] | 191.3 to 192.7 | > 600 | > 600 |
